Common to all, as to assay: Eurofins kinase selectivity profile against 380 other human recombinant kinases (Table S2)
Type in all cases: biochemical

Assay [1] has as its target T1, 380 human recombinant protein kinases (Homo sapiens, UniProt Q86UX6).
T1 construct: purchased Eurofins (Celle Lévescault)
The following applies: STK32C(h), read-out: Inhibition rate (%). Summed up:
(§1)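 Commercial selectivity screen of the test compound against a panel of 380 human recombinant protein kinases, run by an outside contractor at several compound concentrations to check whether its potency was specific for MK2.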

The target in assay [2] is T2, 380 human recombinant protein kinases (Homo sapiens, UniProt Q00537).
T2 construct: purchased Eurofins (Celle Lévescault)
The settings on record: CDK17/cyclinY(h), read-out: Inhibition rate. In outline:
as §1

Assay [3] has as its target T3, 380 human recombinant protein kinases (Homo sapiens, UniProt O14965).
T3 construct: purchased Eurofins (Celle Lévescault)
T3 sequence (O14965 1-403): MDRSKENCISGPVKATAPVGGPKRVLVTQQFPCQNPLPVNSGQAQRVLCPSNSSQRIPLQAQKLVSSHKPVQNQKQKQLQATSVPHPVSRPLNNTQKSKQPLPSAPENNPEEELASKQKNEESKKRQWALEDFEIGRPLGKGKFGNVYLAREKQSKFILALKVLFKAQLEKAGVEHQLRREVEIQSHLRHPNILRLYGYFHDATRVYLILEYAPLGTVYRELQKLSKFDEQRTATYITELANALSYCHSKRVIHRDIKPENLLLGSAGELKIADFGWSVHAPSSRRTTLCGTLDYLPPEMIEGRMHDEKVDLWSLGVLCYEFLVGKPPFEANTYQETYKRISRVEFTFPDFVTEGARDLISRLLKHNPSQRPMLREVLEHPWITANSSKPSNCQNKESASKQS
The following applies: Aurora-A(h), read-out: Inhibition rate. Summed up:
as §1

The target in assay [4] is T4, 380 human recombinant protein kinases (Homo sapiens, UniProt Q9UKI8).
T4 construct: purchased Eurofins (Celle Lévescault)
T4 sequence (Q9UKI8 1-766): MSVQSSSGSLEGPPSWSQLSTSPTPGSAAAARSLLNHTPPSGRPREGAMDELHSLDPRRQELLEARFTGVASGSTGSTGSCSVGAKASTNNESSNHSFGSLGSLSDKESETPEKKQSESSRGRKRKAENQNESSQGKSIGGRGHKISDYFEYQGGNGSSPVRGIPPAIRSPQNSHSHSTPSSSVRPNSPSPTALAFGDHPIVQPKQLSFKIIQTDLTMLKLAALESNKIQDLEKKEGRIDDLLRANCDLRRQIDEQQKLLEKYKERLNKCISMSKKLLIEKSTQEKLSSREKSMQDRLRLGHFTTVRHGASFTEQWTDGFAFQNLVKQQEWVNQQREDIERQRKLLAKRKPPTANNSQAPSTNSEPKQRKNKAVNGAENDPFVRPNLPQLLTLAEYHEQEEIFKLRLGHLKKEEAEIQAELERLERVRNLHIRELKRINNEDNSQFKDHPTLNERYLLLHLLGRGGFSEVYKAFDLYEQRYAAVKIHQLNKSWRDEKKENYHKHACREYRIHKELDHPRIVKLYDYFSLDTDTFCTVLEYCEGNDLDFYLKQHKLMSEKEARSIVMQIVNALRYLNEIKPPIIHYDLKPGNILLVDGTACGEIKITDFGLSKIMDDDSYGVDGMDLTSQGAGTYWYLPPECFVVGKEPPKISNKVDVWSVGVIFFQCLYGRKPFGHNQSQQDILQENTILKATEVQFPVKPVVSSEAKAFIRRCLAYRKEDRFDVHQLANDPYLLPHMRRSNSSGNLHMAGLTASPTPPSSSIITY
The settings on record: TLK1(h), read-out: Inhibition rate (%). In outline: as §1

Assay [5] deals with T5, 380 human recombinant protein kinases (Homo sapiens, UniProt Q9H2X6).
T5 construct: purchased Eurofins (Celle Lévescault)
The following applies: HIPK2(h), read-out: Inhibition rate. In outline:
as §1

For assay [6], the target named is T6, 380 human recombinant protein kinases (Homo sapiens, UniProt O43293).
T6 construct: purchased Eurofins (Celle Lévescault)
The following applies: ZIPK(h), read-out: Inhibition rate (%). In outline: as §1

Assay [7] concerns the target T7, 380 human recombinant protein kinases (Homo sapiens, UniProt Q96L34).
T7 construct: purchased Eurofins (Celle Lévescault)
T7 sequence (Q96L34 1-752): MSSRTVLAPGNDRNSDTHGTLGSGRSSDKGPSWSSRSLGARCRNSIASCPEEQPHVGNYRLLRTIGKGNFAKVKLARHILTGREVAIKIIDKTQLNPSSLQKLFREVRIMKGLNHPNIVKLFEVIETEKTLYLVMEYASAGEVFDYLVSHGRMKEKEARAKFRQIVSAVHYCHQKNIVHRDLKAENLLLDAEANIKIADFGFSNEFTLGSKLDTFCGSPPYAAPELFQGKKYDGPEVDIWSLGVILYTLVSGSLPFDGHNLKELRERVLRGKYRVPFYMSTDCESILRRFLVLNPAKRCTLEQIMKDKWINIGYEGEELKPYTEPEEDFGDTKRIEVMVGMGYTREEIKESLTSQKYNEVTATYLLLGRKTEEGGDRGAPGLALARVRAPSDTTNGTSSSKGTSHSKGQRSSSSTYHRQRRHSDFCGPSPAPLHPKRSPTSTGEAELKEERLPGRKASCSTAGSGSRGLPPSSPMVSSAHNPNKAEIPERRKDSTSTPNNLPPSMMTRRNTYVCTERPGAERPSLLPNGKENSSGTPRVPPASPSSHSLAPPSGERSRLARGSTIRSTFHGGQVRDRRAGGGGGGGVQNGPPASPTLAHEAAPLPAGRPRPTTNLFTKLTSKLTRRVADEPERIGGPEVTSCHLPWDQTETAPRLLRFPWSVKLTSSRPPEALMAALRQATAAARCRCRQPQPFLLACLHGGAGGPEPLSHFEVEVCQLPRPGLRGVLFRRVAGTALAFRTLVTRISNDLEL
The following applies: MARK4(h), read-out: Inhibition rate. Summed up: as §1

Assay [8] concerns the target T8, 380 human recombinant protein kinases (Homo sapiens, UniProt Q16513).
T8 construct: purchased Eurofins (Celle Lévescault)
The settings on record: PRK2(h), read-out: Inhibition rate. In outline:
as §1

T6 sequence (O43293 whole entry): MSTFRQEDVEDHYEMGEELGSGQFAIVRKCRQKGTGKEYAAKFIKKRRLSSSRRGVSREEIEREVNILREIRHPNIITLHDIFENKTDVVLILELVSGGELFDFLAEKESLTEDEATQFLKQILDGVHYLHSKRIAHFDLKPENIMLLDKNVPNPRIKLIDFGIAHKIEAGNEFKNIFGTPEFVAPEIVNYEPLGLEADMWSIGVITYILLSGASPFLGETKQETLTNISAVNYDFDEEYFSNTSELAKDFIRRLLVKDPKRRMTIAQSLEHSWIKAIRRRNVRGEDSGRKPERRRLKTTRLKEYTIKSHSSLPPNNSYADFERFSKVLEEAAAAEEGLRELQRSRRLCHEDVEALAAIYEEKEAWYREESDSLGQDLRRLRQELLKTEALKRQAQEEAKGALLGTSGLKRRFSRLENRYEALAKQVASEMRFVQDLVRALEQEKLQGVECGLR
T2 sequence (Q00537 whole entry): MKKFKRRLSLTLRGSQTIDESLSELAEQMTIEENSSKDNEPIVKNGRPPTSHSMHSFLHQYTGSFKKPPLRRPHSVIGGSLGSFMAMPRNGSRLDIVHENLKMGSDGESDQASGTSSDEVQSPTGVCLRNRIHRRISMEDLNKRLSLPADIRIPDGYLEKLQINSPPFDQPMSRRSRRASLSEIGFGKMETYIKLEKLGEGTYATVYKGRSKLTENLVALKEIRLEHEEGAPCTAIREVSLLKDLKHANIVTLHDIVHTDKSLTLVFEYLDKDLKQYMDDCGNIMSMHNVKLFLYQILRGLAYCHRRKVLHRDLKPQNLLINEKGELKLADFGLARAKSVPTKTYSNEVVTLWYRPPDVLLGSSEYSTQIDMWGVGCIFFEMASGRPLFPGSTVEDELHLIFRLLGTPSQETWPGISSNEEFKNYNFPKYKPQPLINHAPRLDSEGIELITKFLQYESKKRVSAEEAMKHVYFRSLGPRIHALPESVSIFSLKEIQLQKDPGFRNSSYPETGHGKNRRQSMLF
T1 sequence (Q86UX6 whole entry): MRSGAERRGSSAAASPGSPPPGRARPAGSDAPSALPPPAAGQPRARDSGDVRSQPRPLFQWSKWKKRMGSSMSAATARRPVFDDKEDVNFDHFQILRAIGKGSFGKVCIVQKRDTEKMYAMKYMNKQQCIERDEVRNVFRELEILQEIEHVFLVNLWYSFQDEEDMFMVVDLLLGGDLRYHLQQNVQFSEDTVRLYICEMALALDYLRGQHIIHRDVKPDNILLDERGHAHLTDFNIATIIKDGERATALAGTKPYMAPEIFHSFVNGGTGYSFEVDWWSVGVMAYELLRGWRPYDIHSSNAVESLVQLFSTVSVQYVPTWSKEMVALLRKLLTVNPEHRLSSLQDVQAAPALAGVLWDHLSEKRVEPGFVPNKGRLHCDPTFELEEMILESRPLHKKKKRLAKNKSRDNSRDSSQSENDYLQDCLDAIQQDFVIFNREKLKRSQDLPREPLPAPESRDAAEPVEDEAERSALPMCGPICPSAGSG
T8 sequence (Q16513 whole entry): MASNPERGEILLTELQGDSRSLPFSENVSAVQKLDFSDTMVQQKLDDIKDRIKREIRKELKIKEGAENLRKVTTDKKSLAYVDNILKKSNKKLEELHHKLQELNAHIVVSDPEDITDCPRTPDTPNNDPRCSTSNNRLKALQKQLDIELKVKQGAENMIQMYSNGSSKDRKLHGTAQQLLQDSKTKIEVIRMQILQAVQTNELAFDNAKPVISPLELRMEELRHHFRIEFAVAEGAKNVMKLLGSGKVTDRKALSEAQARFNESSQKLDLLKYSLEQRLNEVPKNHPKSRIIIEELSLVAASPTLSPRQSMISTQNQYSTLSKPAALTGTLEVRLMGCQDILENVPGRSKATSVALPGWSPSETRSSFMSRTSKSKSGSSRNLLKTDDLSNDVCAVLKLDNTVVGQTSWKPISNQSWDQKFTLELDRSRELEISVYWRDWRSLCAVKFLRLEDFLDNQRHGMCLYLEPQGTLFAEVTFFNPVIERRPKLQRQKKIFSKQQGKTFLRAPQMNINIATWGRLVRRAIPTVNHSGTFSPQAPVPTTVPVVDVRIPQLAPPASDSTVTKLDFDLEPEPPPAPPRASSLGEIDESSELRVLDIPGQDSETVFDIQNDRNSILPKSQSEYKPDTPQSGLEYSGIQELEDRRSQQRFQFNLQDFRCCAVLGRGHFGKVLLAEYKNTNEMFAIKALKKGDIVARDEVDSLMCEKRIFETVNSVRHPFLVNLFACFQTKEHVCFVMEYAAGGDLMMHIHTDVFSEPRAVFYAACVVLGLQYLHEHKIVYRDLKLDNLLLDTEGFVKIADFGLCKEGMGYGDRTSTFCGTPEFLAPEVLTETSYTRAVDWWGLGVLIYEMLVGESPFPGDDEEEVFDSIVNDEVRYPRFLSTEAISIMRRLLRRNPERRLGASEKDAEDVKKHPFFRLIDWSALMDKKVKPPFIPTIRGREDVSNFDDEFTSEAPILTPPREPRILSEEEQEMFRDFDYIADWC
T5 sequence (Q9H2X6 whole entry): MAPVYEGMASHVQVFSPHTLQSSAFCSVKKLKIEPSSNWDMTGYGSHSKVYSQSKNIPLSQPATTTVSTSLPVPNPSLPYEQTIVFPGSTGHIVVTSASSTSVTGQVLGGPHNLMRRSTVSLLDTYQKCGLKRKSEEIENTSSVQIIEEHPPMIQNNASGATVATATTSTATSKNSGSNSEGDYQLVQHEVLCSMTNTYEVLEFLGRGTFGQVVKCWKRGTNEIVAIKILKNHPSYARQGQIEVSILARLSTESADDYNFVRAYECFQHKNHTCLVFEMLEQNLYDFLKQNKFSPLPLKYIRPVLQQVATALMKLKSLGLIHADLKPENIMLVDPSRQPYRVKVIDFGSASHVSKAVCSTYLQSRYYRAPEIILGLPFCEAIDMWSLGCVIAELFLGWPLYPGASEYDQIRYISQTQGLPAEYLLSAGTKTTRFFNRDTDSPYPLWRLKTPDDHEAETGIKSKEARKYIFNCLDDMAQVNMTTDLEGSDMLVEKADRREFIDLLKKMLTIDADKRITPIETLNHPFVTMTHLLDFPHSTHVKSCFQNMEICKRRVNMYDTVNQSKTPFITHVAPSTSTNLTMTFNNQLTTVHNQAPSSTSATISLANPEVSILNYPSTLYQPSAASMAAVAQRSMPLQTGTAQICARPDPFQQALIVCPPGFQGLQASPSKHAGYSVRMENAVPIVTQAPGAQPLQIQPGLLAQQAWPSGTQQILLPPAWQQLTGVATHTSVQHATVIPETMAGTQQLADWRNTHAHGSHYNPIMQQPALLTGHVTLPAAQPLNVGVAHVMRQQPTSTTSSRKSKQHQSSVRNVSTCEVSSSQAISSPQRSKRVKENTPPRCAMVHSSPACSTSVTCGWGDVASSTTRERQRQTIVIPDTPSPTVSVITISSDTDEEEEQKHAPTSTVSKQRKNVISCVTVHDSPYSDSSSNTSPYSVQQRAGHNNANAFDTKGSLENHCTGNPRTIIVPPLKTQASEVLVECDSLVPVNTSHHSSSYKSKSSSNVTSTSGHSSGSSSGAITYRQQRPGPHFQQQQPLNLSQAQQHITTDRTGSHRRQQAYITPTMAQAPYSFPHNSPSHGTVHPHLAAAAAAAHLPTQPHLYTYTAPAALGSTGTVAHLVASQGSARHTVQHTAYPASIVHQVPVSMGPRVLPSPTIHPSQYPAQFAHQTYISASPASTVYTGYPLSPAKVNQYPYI

By inhibition is commonly meant the relative decrease from the control value, in per cent. With `C=CC(=O)Nc1cc(-c2cc(-c3cc4c([nH]3)CCNC4=O)ccn2)ccc1OC(F)(F)F` [compound 11], the inhibition at 0.01 µM in assay [1] (10 nM) is 0%; in assay [2] (10 nM), 13%; in assay [3] (10 nM), -1%; in assay [4] (10 nM), 13%; in assay [5] (10 nM), -13%; in assay [6] (10 nM) it was 4%. The figures for the inhibition at 0.01 µM in assay [7] (10 nM) and in assay [8] (10 nM) were -10% and -2%, respectively. Also, the inhibition at 0.1 µM in assay [1] (100 nM) was 4%; in assay [2] (100 nM), 19%; in assay [3] (100 nM) it was 1%; in assay [4] (100 nM), 0%; in assay [5] (100 nM), -9%; in assay [6] (100 nM) it was 8%. The inhibition at 0.1 µM in assay [7] (100 nM) was -2%; in assay [8] (100 nM), 3%. The inhibition at 1 µM in assay [1] (1000 nM) is 1%; in assay [2] (1000 nM), 25%; in assay [3] (1000 nM) it was 7%; in assay [4] (1000 nM) it was -5%; in assay [5] (1000 nM), 3%; in assay [6] (1000 nM), 15%. The inhibition at 1 µM in assay [7] (1000 nM) is -4%; in assay [8] (1000 nM), 5%.

The record behind these values is article PMC11233931, “Remodeling tumor‐associated macrophage for anti‐cancer effects by rational design of irreversible inhibition of mitogen‐activated protein kinase‐activated protein kinase 2” (MedComm, 2024).
